Reference: patent US20230181524A1, “PHARMACEUTICAL COMBINATION AND USE THEREOF” (NATURAL MEDICINE INSTITUTE OF ZHEJIANG YANGSHENGTANG CO., …, priority 2020, published 2023)
Where “and” joins values, the source holds several entries; their conditions need not be identical. Equal entries are not always repeated. d = 2'-deoxy (DNA)

Assays:
[1] = test system: HOS human osteosarcoma cells; experiment: Cell counts of drug combination administration (Trypan Blue), cell viability
Experimental: (§1) (1) Cells were plated in a 10 cm culture plate to grow a density of about 90%. The medium was removed, and the adherent cells were washed once with a PBS buffer. 1 mL of trypsin was added, and immediately discarded after mixing well. The cells were placed in the incubator and digested for about 5 min, and then about 10 ml of fresh medium was added. 10 μL was taken for counting.
(§2) (2) 10 μL of the well-mixed cells were taken and mixed into 10 μL of Trypan Blue solution, and counted.
(§3) (3) After counting, the cells were diluted to 1×10^5 cells/ml. The diluted cells were mixed well, and plated into a 24-well plate with 500 μL per well, i.e., about 50,000 cells per well.
(§4) (4) The cells plated in the 24-well plate were cultured for about 24h, and then drugs were added. […]
(§5) (5) After 24h of dosing, the medium was discarded. About 150 μL of trypsin was added and then discarded. The cells were digested for 5 min;
(§6) (6) After digestion, equivalent amounts of PBS were added into each well and mixed uniformly. Then, 10 μL/well of Trypan Blue solution was added and mixed uniformly. 10 μL of the well-mixed solution was taken and counted. In accordance with “Cell viability=Cell Count of Test Group/Cell Count of Control Group×100%”, the cell viability of various groups was calculated.
(§7) The coefficient of drug in interaction (CDI) was used to evaluate the nature of the interaction between the two drugs. The test groups were divided into the control group, the group of A drug, the group of B drug and the group of AB in combination, and used for detecting the cell viability in A, B and AB groups, respectively.

HEK293 cells = experiment: Cell viability compared with HEK293 cells (specificity); assay type: cell-based; conditions: in combination with ascorbic acid
Experimental: HEK293 cells, HOS human osteosarcoma cells, and 143B human osteosarcoma cells were subcultured in an incubator at 37° C., 5% CO2 using a RPMI-1640 medium containing 10% fetal bovine serum (FBS).
(§8) 10 μL was taken for counting.
(5) After 24h of dosing, the medium was discarded. […] The cells were digested for 5 min;

[2] = test system: 143B human osteosarcoma cells; experiment: Cell counts of drug combination administration (Trypan Blue), cell viability
Experimental: as §1, §2, §3, §4, §5, §6, §7

[3] = test system: MC38 human colon cancer cells; experiment: Cell viability, method of Example 1
Experimental: as §1, §2, §3
(§9) (4) The cells plated in the 24-well plate were cultured for about 24h, and then drugs were added. Various test groups comprise 5 groups as follows: the single-drug group of PKF118-310 (with a concentration of 0.1 μM), the group of ascorbic acid (with a concentration of 0.5 mM), the group of PKF118-310 (with a concentration of 0.1 μM) in combination with ascorbic acid (with a concentration of 0.5 mM); the control group that is a cell group to which only solvent DMSO is added; and the blank group that is a group to which no cell is added and only solvent (DMSO) is added.
as §5, §6
(§10) The inhibitory effect of PKF118-310 on the MC38 human colon cancer cells and the HCT116 human […] cancer cells was detected in accordance with the corresponding method of Example 1.

[4] = test system: MC38 human colon cancer cells; experiment: Cell viability of single-drug administration, concentration gradient (CCK-8); assay type: cell-based; conditions: concentrations ranging from 0 to 100 μM
Experimental: as §8
(§11) The diluted cells were plated into a 96-well plate with 100 μL per well, i.e., about 10,000 cells per well. […]
(§12) (4) After 24h of dosing, 10 μL of CCK-8 solution was added. The cells were incubated in the incubator for 1-2 hours, and then measured at 490 nm using a microplate reader for the absorbance (OD value) of each well. The results were recorded. The relative cell viability was calculated as follows:
(§13) The cell viability of the control group obtained according the equation is 100%.

[5] = test system: HCT116 human colon cancer cells; experiment: as above; assay type: cell-based; conditions: concentrations ranging from 0 to 100 μM
Experimental: as §8, §11, §12, §13

[6] = test system: 143B human osteosarcoma cells; experiment: siRNA against β-catenin transfection with or without sodium ascorbate, cell viability by cell count; assay type: cell-based; conditions: 143B cells
Excerpt: SiRNA is designed against the nucleotide sequence of β-catenin, and the siRNA codes are 484, 1202, and 1387, respectively. The sequences of sense strand and anti-sense strand of 484 are shown in SEQ ID NO. 1-2, respectively, and the sequences of sense strand and anti-sense strand of 1202 are shown in SEQ ID NO. 3-4, respectively, and the sequences of sense strand and anti-sense strand of 1387 are shown in SEQ ID NO. 5-6, respectively, wherein there are 2 T-bases at the 3′ end of each strand. 143B human osteosarcoma cells were subcultured at 37° C., 5% CO2 in an incubator with a RPMI-1640 medium containing 10% fetal bovine serum. The particular steps were as follows:
as §8
Then, the medium was discarded and replaced with 500 μL of serum-free medium.
(5) […] of siRNA was added into 50 μL of serum-free medium and mixed well.
(6) 1 μL of Lipofectamin 2000 transfection reagent was added into 50 μL of serum-free medium, mixed well, and stood at room temperature for 5 min.
(7) The siRNA diluted in Step (5) and the Lipofectamin 2000 reagent obtained in Step (6) were mixed, shaken well, and stood at room temperature for 20 min.
(8) 100 μL of the mixture obtained in Step (7) was added into the wells of the cell culture plate, cultured at 37° C. for 4h, and then the medium was replaced with normal medium. And an ascorbic acid solution with a concentration of 0.5 mM into the ascorbic acid group and the combination group.
(9) After 24h of dosing, the medium was discarded. […] The cells were digested for 5 min;

DB lymphoma cells = conditions: 2 mM ascorbic acid alone
Experimental: as §1, §2, §3, §9, §5, §6
For example, as for the DB lymphoma cells, the control group involves adding the solvent DMSO alone, the Vc group involves adding 2 mM of ascorbic acid, the low-dose PKF group involves adding 2 μM of PKF118-310, the low-dose PKF+Vc group involves adding 2 μM of PKF118-310 and 2 mM of ascorbic acid, the high-dose PKF group involves adding 5 μM of PKF118-310, and the high-dose PKF+the Vc group involves adding 5 μM of PKF118-310 and 2 mM of ascorbic acid.

[7] = alone; PKF118-310 0.7 mg/kg s.c. or ascorbate 1 g/kg i.v. every 3 days
Experimental: The day of the first injection was taken as Day 1, and then the body weight and the tumor size of the nude mice were examined and recorded: the tumor volume (mm^3)=Length (L)×Width (W)^2/2. The tumor was subject to Luciferin fluorescence imaging. That is, a 1 mg/mL of aqueous potassium D-fluorescein solution was prepared, and each mouse was intraperitoneally injected with 100 μL. After 10 min of injection, the mice were subject to Luciferin fluorescence imaging with a small animal live imaging instrument.

[8] = test system: HCT116 human colon cancer cells; experiment: cells; conditions: Homo sapiens, HCT-116, read-out: cell viability
Experimental: as §1, §2, §3, §9, §5, §6, §10

[9] = test system: SKOV3 human ovarian cancer cells; experiment: cells; conditions: Homo sapiens, SK-OV-3, read-out: cell viability
Experimental: as §1, §2, §3, §9, §5, §6
(§14) The inhibitory effect of PKF118-310 on the SKOV3 human ovarian cancer cells and the 3AO human ovarian cancer cells was detected in accordance with the corresponding method of Example 1.

[10] = test system: 3AO human ovarian cancer cells; experiment: cells; conditions: Homo sapiens, 3AO, read-out: cell viability
Experimental: as §1, §2, §3, §9, §5, §6, §14

[11] = 10 μM in combination with 0.5 mM ascorbic acid
[12] = 20 μM in combination with 0.5 mM sodium ascorbate
[13] = Homo sapiens, 143B, read-out: cell viability
[14] = Homo sapiens, MC-38, read-out: cell viability
[15] = administration of the siRNA alone
[16] = siRNA in combination with 0.5 mM sodium ascorbate

Compound: Cc1nc2c(=O)n(C)c(=O)nc-2n(C)n1 [3-Methyltoxoflavin]
- cell viability ([1]; 10 μM and 0.5 mM ascorbic acid): 54%
- CDI value [1, 11]: 0.86
- cell viability ([1]; single drug 10 μM): 63%

Compound: OC1CCC(Oc2cccc3cnc(Nc4ccc5nc[nH]c5c4)nc23)CC1 (centres unmarked) [NCB-0846]
- specificity of inhibition of tumor cell viability as compared with the HEK293 cells (HEK293 cells): can specifically inhibit the cell viability of the 143B cells and the HOS cells
- CDI value [1, 12]: 0.16
- CDI value ([2]; 143B cells, 20 μM in combination with 0.5 mM sodium ascorbate): 0.13

Compound: C[C@H]1[C@H]2N(C(=O)CN(C)N2C(=O)NCc2ccccc2)[C@@H](Cc2ccc(OP(=O)(O)O)cc2)C(=O)N1Cc1cccc2cccnc12 [PRI-724]
- CDI value [1, 12]: 0.41
- cell viability [1, 12]: 74%
- cell viability ([1]; single-drug 20 μM): 102%

Compound: Cn1nc(-c2ccc(C(F)(F)F)cc2)nc2c(=O)n(C)c(=O)nc1-2 [Walrycin B]
- cell viability ([1]; 10 μM and 0.5 mM ascorbic acid): 30%
- CDI value [1, 11]: 0.73
- cell viability ([1]; single drug 10 μM): 42%

Compound: CCC(C)c1nc2c(=O)n(C)c(=O)nc-2n(C(C)C)n1 (centres unmarked) [compound C-1]
- CDI value ([2]; 143B cells, 5 μM in combination with 0.5 mM ascorbic acid): 0.40
- viability at 5 µM [2, 13]: 50%
- cell viability ([2]; human, 24 h, 5 μM): 19%
- viability at 5 µM [3, 14]: 90%
- CDI value ([3]; MC38 cells, 5 μM in combination with 0.5 mM ascorbic acid): 0.68
- cell viability ([3]; human, 24 h, 5 μM): 59%

Compound: CC(C)c1nc2c(=O)n(C)c(=O)nc-2n(C)n1 [compound C-2]
- CDI value ([2]; 143B cells, 1 μM in combination with 0.5 mM ascorbic acid): 0.37
- viability at 1 µM [2, 13]: 83%
- cell viability ([2]; human, 24 h, 1 μM): 28%
- viability at 1 µM [3, 14]: 83%
- CDI value ([3]; MC38 cells, 1 μM in combination with 0.5 mM ascorbic acid): 0.07
- cell viability ([3]; human, 24 h, 1 μM): 6%

Compound: O=C1[O][Pt]2([NH][C@@H]3CCCC[C@H]3[NH]2)[O]C1=O [oxaliplatin]
- effect on the cell viability [4]: does not have significant effect on the cell viability
- effect on the cell viability [5]: does not have significant effect on the cell viability

Compound: O=C1O[C@H]([C@@H](O)CO)C([O-])=C1O.[Na+] [sodium ascorbate]
- viability at 500 µM ([6]; Homo sapiens, 0.5 mM sodium ascorbate alone (siRNA experiment)): 63%
- cell viability (DB lymphoma cells): 91%
- effect on the body weight of mice [7]: no effect on the body weight of mice
- viability at 500 µM [8]: 98%
- cell viability ([1]; 0.5 mM sodium ascorbate (ascorbic acid) alone): 91% and 96% and 76%
- cell viability ([1]; 0.5 mM sodium ascorbate (ascorbic acid) alone, listed as ascorbic acid): 98% and 99%
- cell viability ([2]; 143B cells, 0.5 mM sodium ascorbate (ascorbic acid) alone): 54% and 80%
- cell viability ([2]; 143B cells, 0.5 mM sodium ascorbate (ascorbic acid) alone, listed as ascorbic acid): 96% and 92%
- viability at 500 µM ([3]; Homo sapiens, MC-38, read-out: cell viability, MC38 cells, 0.5 mM sodium ascorbate (ascorbic acid) alone): 83%
- cell viability ([3]; MC38 cells, 0.5 mM sodium ascorbate (ascorbic acid) alone): 96% and 98%
- viability at 500 µM [9]: 97%
- viability at 500 µM [10]: 99%

Compound: siRNA 484: siRNA against β-catenin, sense and anti-sense strands SEQ ID NO. 1-2, 2 T-bases at the 3′ end of each strand (sense CCUUCACUCAAGAACAAGU; antisense ACUUGUUCUUGAGUGAAGG; RNA, 3' dTdT, backbone not given here)
- cell viability [6, 15]: 90%
- CDI value [6, 16]: 0.46
- cell viability [6, 16]: 26%

Compound: siRNA 1202: siRNA against β-catenin, sense and anti-sense strands SEQ ID NO. 3-4, 2 T-bases at the 3′ end of each strand (sense GCUCAUCAUACUGGCUAGU; antisense ACUAGCCAGUAUGAUGAGC; RNA, 3' dTdT, backbone not given here)
- cell viability [6, 15]: 91%
- CDI value [6, 16]: 0.30
- cell viability [6, 16]: 17%

Compound: siRNA 1387: siRNA against β-catenin, sense and anti-sense strands SEQ ID NO. 5-6, 2 T-bases at the 3′ end of each strand (sense GUCAACGUCUUGUUCAGAA; antisense UUCUGAACAAGACGUUGAC; RNA, 3' dTdT, backbone not given here)
- cell viability [6, 15]: 80%
- CDI value [6, 16]: 0.40
- cell viability [6, 16]: 20%
